Experimental data published in patent publication US7132234B2, “Methods and compositions for the identification of anti-poxvirus agents” (priority 2003, dated 2006).
Where a SMILES comes first, the peptide text is derived from it. The star is where a group is joined. Cbz = O=C(OCc1ccccc1)*

Tested on: 26S proteasome-mediated degradation of SP28
Format: cell-based

Q: With CC(C)C[C@@H](C=O)NC(=O)[C@H](CC(C)C)NC(=O)[C@H](CC(C)C)NC(=O)OCc1ccccc1 [MG132] (Cbz-Leu-Leu-Leu-aldehyde) as the compound, how does the “Stability of SP28 C173A/H199A mutant in cells” value read?
A: Its value is “also stabilized by MG132, although to a much lesser extent”.

Q: What about the “Stability of wild-type SP28 in cells” value of the same compound?
A: Its value is “remarkably enhanced stability of wild-type SP28”.
